Data as given in patent US8003785B2 (Takeda Pharmaceutical Company Limited, priority 2008, dated 2011).

target: T1, PLK1 (Homo sapiens, UniProt P53350); test: Biochemical Characterization Assay: HTRF kinase assay, GST-PLK1 phosphorylation of GST-p53; conditions: GST-PLK1, GST-p53 substrate
T1 construct: Full-length, active GST-PLK1 is purified from Sf9 insect cells; made in house; host or cells: Sf9 insect cells
In short: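 Full-length active GST-PLK1 (Sf9, 3 ug/mL) phosphorylated full-length GST-p53 (E. coli) in Kinase Assay Buffer for 35 min at 37 °C. Stopped with EDTA; phospho-p53 detected by HTRF with anti-phospho-p53, Eu-anti-rabbit and APC-anti-GST antibodies.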

T1 sequence (P53350 whole entry): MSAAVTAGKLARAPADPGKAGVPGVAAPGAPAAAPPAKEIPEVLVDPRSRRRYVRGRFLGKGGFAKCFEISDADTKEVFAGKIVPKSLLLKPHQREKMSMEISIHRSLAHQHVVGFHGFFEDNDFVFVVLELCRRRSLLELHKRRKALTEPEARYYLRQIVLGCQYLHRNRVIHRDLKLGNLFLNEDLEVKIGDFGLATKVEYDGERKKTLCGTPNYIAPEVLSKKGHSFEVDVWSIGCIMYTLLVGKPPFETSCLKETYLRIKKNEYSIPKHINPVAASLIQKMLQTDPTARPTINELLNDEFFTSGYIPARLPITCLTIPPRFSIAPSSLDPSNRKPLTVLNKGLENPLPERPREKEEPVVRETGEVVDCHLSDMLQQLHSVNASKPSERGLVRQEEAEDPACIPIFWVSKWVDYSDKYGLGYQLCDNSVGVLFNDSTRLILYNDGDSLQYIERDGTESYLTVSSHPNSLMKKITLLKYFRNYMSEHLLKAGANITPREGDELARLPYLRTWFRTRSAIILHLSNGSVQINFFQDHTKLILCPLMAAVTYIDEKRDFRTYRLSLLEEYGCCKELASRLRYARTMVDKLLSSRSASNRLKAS

Compound | IC50
CCN1CCC(NC(=O)c2ccc(Nc3ncc4c(n3)N(C3CCCCC3)CC(F)(F)C(=O)N4C)cc2)CC1 [Example I-261, 4-(9-cyclohexyl-7,7-difluoro-5-methyl-6-oxo-6,7,8,9-tetrahydro-5H-pyrimido[4,5-b][1,4]diazepin-2-ylamino)-N-(1-ethyl-piperidin-4-yl)-benzamide] | 1 to 50 nM
CN1CCC(NC(=O)c2ccc(Nc3ncc4c(n3)N(C3CCCCC3)CC(F)(F)C(=O)N4C)cc2)CC1 [Example I-262, 4-(9-cyclohexyl-7,7-difluoro-5-methyl-6-oxo-6,7,8,9-tetrahydro-5H-pyrimido[4,5-b][1,4]diazepin-2-ylamino)-N-(1-methyl-piperidin-4-yl)-benzamide] | 1 to 50 nM
CN1C(=O)C(F)(F)CN(C2CCCCC2)c2nc(Nc3ccc(C(=O)NC4CCOCC4)cc3)ncc21 [Example I-263, 4-(9-cyclohexyl-7,7-difluoro-5-methyl-6-oxo-6,7,8,9-tetrahydro-5H-pyrimido[4,5-b][1,4]diazepin-2-ylamino)-N-(tetrahydro-pyran-4-yl)-benzamide] | 1 to 50 nM
CN(C)CCCNC(=O)c1ccc(Nc2ncc3c(n2)N(C2CCCCC2)CC(F)(F)C(=O)N3C)cc1 [Example I-265, 4-(9-cyclohexyl-7,7-difluoro-5-methyl-6-oxo-6,7,8,9-tetrahydro-5H-pyrimido[4,5-b][1,4]diazepin-2-ylamino)-N-(3-dimethylamino-propyl)-benzamide] | 1 to 50 nM
COc1cc(C(=O)NC2CCN(CC(F)F)CC2)ccc1Nc1ncc2c(n1)N(C1CCCCC1)CC(F)(F)C(=O)N2C [Example I-266, 4-(9-cyclohexyl-7,7-difluoro-5-methyl-6-oxo-6,7,8,9-tetrahydro-5H-pyrimido[4,5-b][1,4]diazepin-2-ylamino)-N-[1-(2,2-difluoro-ethyl)-piperidin-4-yl]-3-methoxy-benzamide] | 1 to 50 nM
COc1cc(C(=O)NC2CCN(CCO)CC2)ccc1Nc1ncc2c(n1)N(C1CCCCC1)CC(F)(F)C(=O)N2C [Example I-267, 4-(9-cyclohexyl-7,7-difluoro-5-methyl-6-oxo-6,7,8,9-tetrahydro-5H-pyrimido[4,5-b][1,4]diazepin-2-ylamino)-N-[1-(2-hydroxy-ethyl)-piperidin-4-yl]-3-methoxy-benzamide] | 1 to 50 nM
COc1cc(C(=O)NC2CCN(S(C)(=O)=O)CC2)ccc1Nc1ncc2c(n1)N(C1CCCCC1)CC(F)(F)C(=O)N2C [Example I-268, 4-(9-cyclohexyl-7,7-difluoro-5-methyl-6-oxo-6,7,8,9-tetrahydro-5H-pyrimido[4,5-b][1,4]diazepin-2-ylamino)-N-(1-methanesulfonyl-piperidin-4-yl)-3-methoxy-benzamide] | 51 to 500 nM
COc1cc(C(=O)NC2CCN(C)CC2)ccc1Nc1ncc2c(n1)N(CCc1cccs1)CC(F)(F)C(=O)N2C [Example I-270, 4-[7,7-difluoro-5-methyl-6-oxo-9-(2-thiophen-2-yl-ethyl)-6,7,8,9-tetrahydro-5H-pyrimido[4,5-b][1,4]diazepin-2-ylamino]-3-methoxy-N-(1-methyl-piperidin-4-yl)-benzamide] | 1 to 50 nM
COc1cc(C(=O)NC2CCOCC2)ccc1Nc1ncc2c(n1)N(CCc1cccs1)CC(F)(F)C(=O)N2C [Example I-274, 4-[7,7-difluoro-5-methyl-6-oxo-9-(2-thiophen-2-yl-ethyl)-6,7,8,9-tetrahydro-5H-pyrimido[4,5-b][1,4]diazepin-2-ylamino]-3-methoxy-N-(tetrahydro-pyran-4-yl)-benzamide] | 51 to 500 nM
COc1cc(C(=O)NC2CCN(C)CC2)ccc1Nc1ncc2c(n1)N(CCc1ccccc1)CC(F)(F)C(=O)N2C [Example I-276, 4-(7,7-difluoro-5-methyl-6-oxo-9-phenethyl-6,7,8,9-tetrahydro-5!-pyrimido[4,5-b][1,4]diazepin-2-ylamino)-3-methoxy-N-(1-methyl-piperidin-4-yl)-benzamide] | 1 to 50 nM
COc1cc(C(N)=O)ccc1Nc1ncc2c(n1)N(CCc1ccccc1)CC(F)(F)C(=O)N2C [Example I-277, 4-(7,7-difluoro-5-methyl-6-oxo-9-phenethyl-6,7,8,9-tetrahydro-5H-pyrimido[4,5-b][1,4]diazepin-2-ylamino)-3-methoxy-benzamide] | 51 to 500 nM
COc1cc(C(=O)NCCCN(C)C)ccc1Nc1ncc2c(n1)N(CCc1ccccc1)CC(F)(F)C(=O)N2C [Example I-279, 4-(7,7-difluoro-5-methyl-6-oxo-9-phenethyl-6,7,8,9-tetrahydro-5H-pyrimido[4,5-b][1,4]diazepin-2-ylamino)-N-(3-dimethylamino-propyl)-3-methoxy-benzamide] | 51 to 500 nM
COc1cc(C(=O)NC2CCOCC2)ccc1Nc1ncc2c(n1)N(CCc1ccccc1)CC(F)(F)C(=O)N2C [Example I-280, 4-(7,7-difluoro-5-methyl-6-oxo-9-phenethyl-6,7,8,9-tetrahydro-5H-pyrimido[4,5-b][1,4]diazepin-2-ylamino)-3-methoxy-N-(tetrahydro-pyran-4-yl)-benzamide] | 51 to 500 nM
COc1cc(C(N)=O)ccc1Nc1ncc2c(n1)N(CCCc1ccccc1)CC(F)(F)C(=O)N2C [Example I-283, 4-[7,7-difluoro-5-methyl-6-oxo-9-(3-phenyl-propyl)-6,7,8,9-tetrahydro-5H-pyrimido[4,5-b][1,4]diazepin-2-ylamino]-3-methoxy-benzamide] | 51 to 500 nM
CNC(=O)c1ccc(Nc2ncc3c(n2)N(CCCc2ccccc2)CC(F)(F)C(=O)N3C)c(OC)c1 [Example I-284, 4-[7,7-difluoro-5-methyl-6-oxo-9-(3-phenyl-propyl)-6,7,8,9-tetrahydro-5H-pyrimido[4,5-b][1,4]diazepin-2-ylamino]-3-methoxy-N-methyl-benzamide] | 51 to 500 nM
COc1cc(C(=O)NCCCN(C)C)ccc1Nc1ncc2c(n1)N(CCCc1ccccc1)CC(F)(F)C(=O)N2C [Example I-285, 4-[7,7-difluoro-5-methyl-6-oxo-9-(3-phenyl-propyl)-6,7,8,9-tetrahydro-5H-pyrimido[4,5-b][1,4]diazepin-2-ylamino]-N-(3-dimethylamino-propyl)-3-methoxy-benzamide] | 1 to 50 nM

Other lines, results leading:

IC50 | Compound
1 to 50 nM | CN(C)CCNC(=O)c1ccc(Nc2ncc3c(n2)N(C2CCCCC2)CC(F)(F)C(=O)N3C)cc1 [Example I-264, 4-(9-cyclohexyl-7,7-difluoro-5-methyl-6-oxo-6,7,8,9-tetrahydro-5H-pyrimido[4,5-b][1,4]diazepin-2-ylamino)-N-(2-dimethylamino-ethyl)-benzamide]
51 to 500 nM | COc1cc(C(=O)O)ccc1Nc1ncc2c(n1)N(CCc1cccs1)CC(F)(F)C(=O)N2C [Example I-269, 4-[7,7-difluoro-5-methyl-6-oxo-9-(2-thiophen-2-yl-ethyl)-6,7,8,9-tetrahydro-5-pyrimido[4,5-b]diazepin-2-ylamino]-3-methoxy-benzoic acid]
51 to 500 nM | COc1cc(C(N)=O)ccc1Nc1ncc2c(n1)N(CCc1cccs1)CC(F)(F)C(=O)N2C [Example I-271, 4-[7,7-difluoro-5-methyl-6-oxo-9-(2-thiophen-2-yl-ethyl)-6,7,8,9-tetrahydro-5H-pyrimido[4,5-b][1,4]diazepin-2-ylamino]-3-methoxy-benzamide]
1 to 50 nM | CNC(=O)c1ccc(Nc2ncc3c(n2)N(CCc2cccs2)CC(F)(F)C(=O)N3C)c(OC)c1 [Example I-272, 4-[7,7-difluoro-5-methyl-6-oxo-9-(2-thiophen-2-yl-ethyl)-6,7,8,9-tetrahydro-5H-pyrimido[4,5-b][1,4]diazepin-2-ylamino]-3-methoxy-N-methyl-benzamide]
1 to 50 nM | COc1cc(C(=O)NCCCN(C)C)ccc1Nc1ncc2c(n1)N(CCc1cccs1)CC(F)(F)C(=O)N2C [Example I-273, 4-[7,7-difluoro-5-methyl-6-oxo-9-(2-thiophen-2-yl-ethyl)-6,7,8,9-tetrahydro-5H-pyrimido[4,5-b][1,4]diazepin-2-ylamino]-N-(3-dimethylamino-propyl)-3-methoxy-benzamide]
51 to 500 nM | COc1cc(C(=O)O)ccc1Nc1ncc2c(n1)N(CCc1ccccc1)CC(F)(F)C(=O)N2C [Example I-275, 4-(7,7-difluoro-5-methyl-6-oxo-9-phenethyl-6,7,8,9-tetrahydro-5H-pyrimido[4,5-b][1,4]diazepin-2-ylamino)-3-methoxy-benzoic acid]
51 to 500 nM | CNC(=O)c1ccc(Nc2ncc3c(n2)N(CCc2ccccc2)CC(F)(F)C(=O)N3C)c(OC)c1 [Example I-278, 4-(7,7-difluoro-5-methyl-6-oxo-9-phenethyl-6,7,8,9-tetrahydro-5H-pyrimido[4,5-b][1,4]diazepin-2-ylamino)-3-methoxy-N-methyl-benzamide]
51 to 500 nM | COc1cc(C(=O)O)ccc1Nc1ncc2c(n1)N(CCCc1ccccc1)CC(F)(F)C(=O)N2C [Example I-281, 4-[7,7-difluoro-5-methyl-6-oxo-9-(3-phenyl-propyl)-6,7,8,9-tetrahydro-5H-pyrimido[4,5-b][1,4]diazepin-2-ylamino]-3-methoxy-benzoic acid]
1 to 50 nM | COc1cc(C(=O)NC2CCN(C)CC2)ccc1Nc1ncc2c(n1)N(CCCc1ccccc1)CC(F)(F)C(=O)N2C [Example I-282, 4-[7,7-difluoro-5-methyl-6-oxo-9-(3-phenyl-propyl)-6,7,8,9-tetrahydro-5H-pyrimido[4,5-b][1,4]diazepin-2-ylamino]-3-methoxy-N-(1-methyl-piperidin-4-yl)-benzamide]
51 to 500 nM | COc1cc(C(=O)NC2CCOCC2)ccc1Nc1ncc2c(n1)N(CCCc1ccccc1)CC(F)(F)C(=O)N2C [Example I-286, 4-[7,7-difluoro-5-methyl-6-oxo-9-(3-phenyl-propyl)-6,7,8,9-tetrahydro-5H-pyrimido[4,5-b][1,4]diazepin-2-ylamino]-3-methoxy-N-(tetrahydro-pyran-4-yl)-benzamide]
